Laboratory results as given in PubChem BioAssay (NCI).
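Values below derive from 48-hour exposures of cells grown in 96-well plates, with endpoints linearly interpolated between the two concentrations bracketing the appropriate inhibition level. The concentration for full growth arrest is given as TGI.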

Legend:
Assay in all cases: inhibition of tumour cell growth, NCI panel, 48 h
[1] = system: EKVX NSCLC
[2] = system: HL-60(TB) leukemia
[3] = system: HOP-62 NSCLC
[4] = system: HS 578T breast
[5] = system: K-562 leukemia
[6] = system: KM12 colon
[7] = system: LOX IMVI melanoma
[8] = system: MDA-MB-231 breast
[9] = system: MOLT-4 leukemia
[10] = system: NCI-H460 lung
[11] = system: NCI-H522 lung
[12] = system: NCI/ADR-RES ovarian
[13] = system: OVCAR-3 ovarian
[14] = system: OVCAR-4 ovarian
[15] = system: OVCAR-5 ovarian
[16] = system: OVCAR-8 ovarian
[17] = system: PC-3 prostate
[18] = system: SF-268 CNS
[19] = system: SK-MEL-28 melanoma
[20] = system: SN12C renal

Row | Compound | TGI [1] | TGI [2] | TGI [3] | TGI [4] | TGI [5] | TGI [6] | TGI [7] | TGI [8] | TGI [9] | TGI [10] | TGI [11] | TGI [12] | TGI [13] | TGI [14] | TGI [15] | TGI [16] | TGI [17] | TGI [18] | TGI [19] | TGI [20]
1 | CC(=O)c1sc2c(c1OC(=O)c1ccccc1)c(=O)n(-c1ccccc1)c(=S)n2-c1ccccc1 | 69.1 µM | > 68.1 µM | 45.9 µM | > 30.7 µM | > 58.3 µM | 92.3 µM | 5.26 µM | 22.7 µM | 8.3 µM | > 59.5 µM | 67.8 µM | 28.7 µM | > 62.5 µM | 57.9 µM | 17.1 µM | > 28.3 µM | 14.9 µM | > 63 µM | 30.4 µM | > 42.5 µM
2 | O=C(/C=C/c1ccc(O)c(O)c1)c1ccc(O)cc1O | 75.6 µM | 22.3 µM | 42.4 µM | 78.8 µM | 25.4 µM | 24.3 µM | 24 µM | 50.8 µM | 55.9 µM | 36.3 µM | 8.65 µM | > 84.1 µM | 37.4 µM | 37.8 µM | 32.8 µM | 51 µM | 52.6 µM | 37.6 µM | 30.5 µM | 43.9 µM
3 | Clc1ccc2c(c1)CC1C[N+]3=C(CCCCC3)C1=C2 (stereo not given) | > 100 µM | > 100 µM | > 100 µM | > 100 µM | > 100 µM | > 100 µM | > 100 µM | > 100 µM | > 100 µM | > 100 µM | > 100 µM | > 100 µM | > 100 µM | > 100 µM | > 100 µM | > 100 µM | > 100 µM | > 100 µM | > 100 µM | > 100 µM
4 | C/C1=C\CC[C@@]2(C)O[C@@H]2C[C@@H]2[C@H](C/C(C)=C/CC1)OC(=O)[C@]21CO1 | > 100 µM | > 100 µM | > 100 µM | > 100 µM | > 100 µM | > 100 µM | 44.6 µM | > 100 µM | > 100 µM | 45.1 µM | > 100 µM | > 100 µM | > 100 µM | > 100 µM | > 100 µM | > 100 µM | > 100 µM | > 100 µM | > 100 µM | > 100 µM
5 | C[C@@]12C[C@@H](c3ccccc3O1)N1CCCSC1=N2 | > 100 µM | > 100 µM | > 100 µM | > 100 µM | > 100 µM | > 100 µM | > 100 µM | > 100 µM | > 100 µM | > 100 µM | > 100 µM | > 100 µM | > 100 µM | > 100 µM | > 100 µM | > 100 µM | > 100 µM | > 100 µM | > 100 µM | > 100 µM
6 | CC(C)NC(=O)OCc1c(COC(=O)NC(C)C)c(-c2cc[n+](COC(=O)Cc3ccccc3)cc2)n2c1CCC2 | > 100 µM | > 100 µM | > 100 µM | > 100 µM | > 100 µM | > 100 µM | > 100 µM | > 100 µM | > 100 µM | > 100 µM | > 100 µM | > 100 µM | > 100 µM | > 100 µM | > 100 µM | > 100 µM | > 100 µM | > 100 µM | > 100 µM | > 100 µM
7 | O=C(Nc1ccccc1)c1cc2cc(CCl)ccc2oc1=O | > 100 µM | > 100 µM | > 100 µM | 63.9 µM | > 100 µM | > 100 µM | > 100 µM | > 100 µM | > 100 µM | > 100 µM | > 100 µM | > 100 µM | > 100 µM | > 100 µM | > 100 µM | > 100 µM | > 100 µM | > 100 µM | > 100 µM | > 100 µM
8 | CCOC(=O)c1c(Br)c(-c2ccc([N+](=O)[O-])cc2)c(Br)n1C | > 10 µM | > 10 µM | > 10 µM | > 10 µM | > 10 µM | > 10 µM | > 10 µM | > 10 µM | > 10 µM | > 10 µM | > 10 µM | > 10 µM | > 10 µM | > 10 µM | > 10 µM | > 10 µM | > 10 µM | > 10 µM | > 10 µM | > 10 µM
9 | O=[N+]([O-])c1ccc(C2NC(=S)NC3c4cc([N+](=O)[O-])ccc4CCCC23)cc1 (stereo not given) | > 100 µM | > 100 µM | > 100 µM | > 100 µM | > 100 µM | > 100 µM | > 100 µM | > 100 µM | > 100 µM | > 100 µM | > 100 µM | > 100 µM | > 100 µM | > 100 µM | > 100 µM | > 100 µM | > 100 µM | > 100 µM | > 100 µM | > 100 µM
10 | COc1ccccc1/C=C1\CCC(CN2CCOCC2)C1=O (stereo not given) | 30.6 µM | 6.42 µM | 50.2 µM | > 100 µM | 10.3 µM | 14.5 µM | 15.7 µM | 11.5 µM | 14.2 µM | 36 µM | 3.8 µM | 35.8 µM | 15.2 µM | 35.6 µM | 33.7 µM | 16.9 µM | 30 µM | 41.7 µM | 29.6 µM | 16.2 µM
11 | O=C(NCCCN1CCN(CCCNC(=O)c2cc(-c3ccccc3)nc3ccccc23)CC1)c1cc(-c2ccccc2)nc2ccccc12 | 51.5 µM | > 51.8 µM | 41.3 µM | 37.1 µM | 34.2 µM | > 58.2 µM | 10.6 µM | > 62.6 µM | > 66.1 µM | > 64.7 µM | 32 µM | > 72.3 µM | > 53.6 µM | > 58.4 µM | > 78.2 µM | 29.7 µM | 26 µM | > 60.2 µM | 3.99 µM | 43 µM
12 | Cc1cc(S(=O)(=O)Nc2nnc3c(Cl)cc(C(F)(F)F)cn23)c(S)cc1Cl | > 100 µM | > 100 µM | > 100 µM | > 100 µM | > 100 µM | > 100 µM | > 100 µM | > 100 µM | > 100 µM | > 100 µM | > 100 µM | > 100 µM | > 100 µM | > 100 µM | > 100 µM | > 100 µM | > 100 µM | > 100 µM | > 100 µM | > 100 µM
13 | CC(C)(C)c1cc(OCc2n[nH]c(=S)n2N)c(Cl)cc1OCc1n[nH]c(=S)n1N | > 100 µM | 58.5 µM | > 100 µM | > 100 µM | > 100 µM | > 100 µM | > 100 µM | > 100 µM | > 100 µM | 77.9 µM | > 100 µM | > 100 µM | > 100 µM | > 100 µM | > 100 µM | > 100 µM | > 100 µM | > 100 µM | > 100 µM | 94 µM
14 | CC(=O)OC1CC2C(=O)CC1(C)C2(C)C (stereo not given) | > 100 µM | > 100 µM | > 100 µM | > 100 µM | > 100 µM | > 100 µM | > 100 µM | > 100 µM | > 100 µM | > 100 µM | > 100 µM | > 100 µM | > 100 µM | > 100 µM | > 100 µM | > 100 µM | > 100 µM | > 100 µM | > 100 µM | > 100 µM
15 | CC(=O)O[C@H]1C(=O)[C@@]2(C)[C@H]([C@H](OC(=O)c3ccccc3)[C@]3(O)C[C@H](OC(=O)[C@H](O)[C@@H](NC(=O)OC(C)(C)C)c4ccco4)C(C)=C1C3(C)C)[C@]1(OC(C)=O)CO[C@@H]1C[C@@H]2O | > 50 µM | 0.0241 µM | 0.601 µM | < 0.005 µM | 13.4 µM | > 50 µM | 22.3 µM | 14.7 µM | 25.9 µM | > 19 µM | 0.00875 µM | 0.643 µM | 0.0471 µM | > 50 µM | 9.96 µM | > 50 µM | > 50 µM | > 50 µM | > 28.3 µM | 36.3 µM
16 | O=C(N/N=C\c1ccc(Cl)cc1)Nc1cccc2ccccc12 | > 100 µM | 27.1 µM | 5.25 µM | 12 µM | > 100 µM | > 23 µM | > 100 µM | > 59.1 µM | > 43.7 µM | 10.2 µM | > 31.5 µM | > 100 µM | 3.24 µM | 6.84 µM | > 100 µM | > 40.8 µM | > 100 µM | > 26.1 µM | > 100 µM | 76 µM
17 | CCOC(=O)C12CCC(c3c(C)cccc3C)(O1)C(C(=O)OC)=C2C(=O)OC (stereo not given) | > 10 µM | > 7.4 µM | > 10 µM | > 9.49 µM | > 10 µM | > 10 µM | > 7.87 µM | 9.93 µM | > 10 µM | > 10 µM | > 10 µM | > 10 µM | 4.2 µM | > 10 µM | > 9.61 µM | > 10 µM | > 10 µM | > 10 µM | > 10 µM | > 10 µM
